The record followed here is US20180125995A1, “ANTI-STAPHYLOCOCCUS AUREUS ANTIBODY RIFAMYCIN CONJUGATES AND USES THEREOF” (priority 2014, published 2018).

Values after ≈ are worked out from the molar mass of the structure shown.

For experiment [1], the system named is S. aureus (USA300 NRS384 strain) in murine macrophages. The experiment in a line: In vitro macrophage assay. The class given is cell-based, Staphylococcus aureus. The conditions noted are these: for reduction of bacterial loads: highest dose tested (100 ug/mL), intracellular bacteria 2 days later; for killing of intracellular MRSA: macrophage assay in vitro. As to the method: S. aureus (USA300 NRS384 strain) was incubated with various doses (100 ug/mL, 10 ug/mL, 1 ug/mL or 0.1 ug/mL) of an anti-S. aureus unconjugated antibody, 103 AAC loaded with 1.9 average antibiotic molecules per antibody (AAR2) or with 102 AAC loaded with 3.9 average antibiotic molecules per antibody (AAR4) for 1 hour to permit binding of the antibody to the bacteria. The resulting opsonized bacteria were fed to murine macrophages and incubated at 37° C. to permit phagocytosis (in vitro macrophage assay). After 2 hours, the infection mix was removed and replaced with normal growth media supplemented with 50 ug/mL of gentamycin to kill any remaining extracellular bacteria. The total number of surviving intracellular bacteria was determined 2 days later by plating serial dilutions of the macrophage lysates on Tryptic Soy Agar plates.

Experiment [2] has as its system MRSA (USA300 NRS384 strain). The experiment in a line: Murine intravenous infection model (SCID IVIG model). The class given is in vivo, Staphylococcus aureus. The conditions noted are these: for mice having undetectable level of bacteria in hearts: day 4, n=8; for reduction of bacterial load in kidneys: vs naked antibody. As to the method: Murine intravenous infection model. For studies involving competing human IgG (SCID IVIG model), CB17.SCID mice (Charles River Laboratories, Hollister, Calif.) were reconstituted with GammaGard S/D IGIV Immune Globulin (ASD Healthcare, Brooks Ky.) using a dosing regimen optimized to achieve constant serum levels of at least 10 mg/mL of human IgG in serum. IGIV was administered with an initial intravenous dose of 30 mg per mouse followed by a second dose of 15 mg/mouse by intraperitoneal injection after 6 hours, and subsequent daily dosing of 15 mg per mouse by intraperitoneal injection for 3 consecutive days.
Mice (n=8 for each of antibody or AAC) were infected 4 hours after the first dose of IGIV with 1×10^7 CFU of MRSA (USA300 NRS384 strain) diluted in phosphate buffered saline by intravenous injection. Infected mice were treated with 50 mg/kg of rF1 naked antibody, 103 AAC DAR2 or 102 AAC DAR4. Mice were given a single dose of AAC 26h post infection by intravenous injection, sacrificed on day 4 post infection, and kidneys and hearts were harvested in 5 mL of phosphate buffered saline. The tissue samples were homogenized using a GentleMACS Dissociator™ (Miltenyi Biotec, Auburn, Calif.). The total number of bacteria recovered per organ was determined by plating serial dilutions of the tissue homogenate in PBS 0.05% Tween on Tryptic Soy Agar with 5% defibrinated sheep blood.

The test system of experiment [3] is MRSA (NRS384 strain of USA300). The experiment in a line: MIC determination for extracellular bacteria in liquid culture. The class given is cell-based. Conditions: Staphylococcus aureus, read-out: Extracellular MRSA MIC. The procedure: The MIC for extracellular bacteria was determined by preparing serial 2-fold dilutions of the antibiotic in Tryptic Soy Broth. Dilutions of the antibiotic were made in quadruplicate in 96 well culture dishes. MRSA (NRS384 strain of USA300) was taken from an exponentially growing culture and diluted to 1×10^4 CFU/mL. The bacteria was cultured in the presence of antibiotic for 18-24 hours with shaking at 37° C. and bacterial growth was determined by reading the Optical Density (OD) at […]. The MIC was determined to be the dose of antibiotic that inhibited bacterial growth by >90%.
(§1) For extracellular bacteria, MRSA was cultured overnight in Tryptic Soy Broth, and the MIC was determined to be the minimum antibiotic dose that prevented growth. For intracellular bacteria, murine peritoneal macrophages were infected with MRSA and cultured in the presence of gentamycin to kill extracellular bacteria. Test antibiotics were added to the culture medium one day post infection, and the total number of surviving intracellular bacteria was determined 24 hours later. The expected serum concentrations for clinically relevant antibiotics was reported in Antimicrobial Agents, Andre Bryskier. ASM Press, Washington D.C. (2005).

Experiment [4] has as its system MRSA sequestered inside mouse peritoneal macrophages. Kind of experiment: MIC determination for intracellular bacteria sequestered inside murine macrophages. The experiment is classed as cell-based, Staphylococcus aureus. The conditions noted are these: for MIC: Staphylococcus aureus, MRSA, 24 h, read-out: Intracellular MRSA MIC; for killing of MRSA sequestered inside macrophages: clinically achievable concentrations of the antibiotics. As to the method:
Intracellular MIC was determined on bacteria that were sequestered inside mouse peritoneal macrophages (see below for generation of murine peritoneal macrophages). Macrophages were plated in 24 well culture dishes at a density of 4×10^5 cells/mL and infected with MRSA at a ratio of 10-20 bacteria per macrophage. Macrophage cultures were maintained in growth media supplemented with 50 ug/mL of gentamycin (an antibiotic that is active only on extracellular bacteria) to inhibit the growth of extracellular bacteria and test antibiotics were added to the growth media 1 day after infection. The survival of intracellular bacteria was assessed 24 hours after addition of the antibiotics. Macrophages were lysed with Hanks Buffered Saline Solution supplemented with 0.1% Bovine Serum Albumin and 0.1% Triton-X, and serial dilutions of the lysate were made in Phosphate Buffered Saline solution containing 0.05% Tween-20. The number of surviving intracellular bacteria was determined by plating on Tryptic Soy Agar plates with 5% defibrinated sheep blood.
as §1

The subject of another experiment is MRSA. Kind of experiment: In vitro survival of MRSA in presence of vancomycin (planktonic, on MG63 osteoblasts, inside peritoneal cells). The class given is cell-based, Staphylococcus aureus. The procedure: Further analyses in vitro addressed more quantitatively the extent to which intracellular survival facilitates antibiotic evasion. To this end, MG63 osteoblasts were infected with either planktonic MRSA or intracellular MRSA, in the presence of vancomycin.
Infection of osteoblasts or HBMEC. MG63 cell line was obtained from ATCC (CRL-1427) and maintained in RPMI 1640 tissue culture media supplemented with 10 mM Hepes and 10% Fetal Calf Serum (RPMI-10). HBMEC cells (Catalog #1000) and ECM media (catalog#1001) were obtained from SciencCell Research Labs (Carlsbad, Calif.). Cells were plated in 24 well tissue culture plates and cultured to obtain a confluent layer. On the day of the experiment, the cells were washed once in RPMI (without supplements). MRSA or infected peritoneal cells were diluted in complete RPMI-10 and vancomycin was added at 5 ug/mL immediately prior to infection. Peritoneal cells were added to the osteoblasts at 1×10^6 peritoneal cells/mL. A sample of the cells was lysed with 0.1% triton-x to determine the actual concentration of live intracellular bacteria at the time of infection. The actual titer for all infections was determined by plating serial dilutions of the bacteria on Tryptic Soy Agar with 5% defibrinated sheep blood.
MRSA (free bacteria) was seeded in media, media+vancomycin, or media+vancomycin and plated on a monolayer of MG63 osteoblasts (FIG. 1E) or Human Brain Microvascular Endothelial Cells (HBMEC, FIG. 1F). Plates were centrifuged to promote contact of the bacteria with the monolayer. At each time point, the culture supernatant was collected to recover extracellular bacteria or adherent cells were lysed to release intracellular bacteria.

In another experiment the test system is S. aureus. Kind of experiment: Mouse intravenous infection with free vs intracellular S. aureus, vancomycin therapy. The class given is in vivo, Staphylococcus aureus. The conditions noted are these: mice, i.v. infection, vancomycin immediately after infection then once per day, 4 days post infection. The procedure:
FIGS. 1A-1F: Intracellular stores of MRSA are protected from vancomycin in vivo and in vitro. […] Four cohorts of mice were infected by intravenous injection with roughly equivalent doses of viable free bacteria or intracellular bacteria and selected groups were treated with vancomycin immediately after infection and then once per day (see Example 2). FIG. 1B and FIG. 1C show bacterial loads in kidney and brain, respectively of infected mice 4 days post infection. The dashed line indicates the limit of detection for the assay. […] (ND=none detected). […] MRSA (free bacteria) was seeded in media, media+vancomycin, or media+vancomycin and plated on a monolayer of MG63 osteoblasts (FIG. 1E) or Human Brain Microvascular Endothelial Cells (HBMEC, FIG. 1F). Extracellular bacteria (free bacteria) grew well in media alone, but were killed by vancomycin. In wells containing a monolayer of mammalian cells (Intracellular+vanco) a fraction of the bacteria were protected from vancomycin during the first 8 hours after infection and were able to expand within the intracellular compartment over 24 hours. Error bars show standard deviation for triplicate wells.
These experiments compared the virulence of intracellular bacteria versus an equivalent dose of free-living planktonic bacteria, and determined whether the intracellular bacteria are able to establish infection in the presence of vancomycin in vivo. […]

Experiment [5] concerns the target glycosylated serine-aspartate repeat (SDR) proteins of Staphylococcus aureus, as displayed on whole bacteria, in lysates or in cell wall preparations. Kind of experiment: flow cytometry on whole USA300 bacteria. For orientation: Flow cytometry measures light scatter and fluorescence of single cells or particles in a stream.
[6] abbreviates: CB17.SCID mice with IGIV, 50 mg/kg single i.v. dose 26h post infection, day 4.

Turning to “thio-rF1-LC-V205C-MC-(CBDK-cit)-PAB-(dimethylpipBOR) [AAC 103]”, in experiment [1], the “reduction of bacterial loads” value stood at 350 fold and the “killing of intracellular MRSA” value is “killed intracellular MRSA”. For the same molecule, in experiment [2] (50 mg/kg single i.v. dose), the “mice having undetectable level of bacteria in hearts” value was 6 out of 8. Moreover, in experiment [2] (setting [6]), the “reduction of bacterial burdens in heart” value is given as “approximately 70 fold” and the “reduction of bacterial load in kidneys” value is reported as “approximately 30 fold”.
Regarding `CN[C@H](CC(C)C)C(=O)N[C@H]1C(=O)N[C@@H](CC(N)=O)C(=O)N[C@H]2C(=O)N[C@H]3C(=O)N[C@H](C(=O)N[C@H](C(=O)O)c4cc(O)cc(O)c4-c4cc3ccc4O)[C@H](O)c3ccc(c(Cl)c3)Oc3cc2cc(c3O[C@@H]2O[C@H](CO)[C@@H](O)[C@H](O)[C@H]2O[C@H]2C[C@](C)(N)[C@H](O)[C@H](C)O2)Oc2ccc(cc2Cl)[C@H]1O` [Vancomycin], the MIC in experiment [3] stood at 1 µg/mL (≈ 0.69 µM). Also, in experiment [4], the MIC was above 100 µg/mL and the “killing of MRSA sequestered inside macrophages” value is given as “failed to kill”. The “survival of intracellular MRSA in the leukocytes” value with MRSA (MRSA sequestered inside peritoneal cells, vancomycin, identical conditions) is on record as “About 15%”. Moreover, the “killing of planktonic bacteria” value with MRSA (planktonic bacteria exposed to vancomycin alone, 5 ug/mL, one day in culture) is recorded as “efficiently killed”. Also, in the experiment with MRSA (planktonic bacteria plated on MG63 osteoblasts, vancomycin, one day after infection), the “surviving bacteria associated with MG63 cells (% of input)” value is “approximately 0.06%”. Besides, the “establishment of infection in kidney and brain under vancomycin therapy” value with S. aureus is “intracellular bacteria, but not planktonic bacteria, were able to establish infection”.
As to `CCCCCCCCCC(=O)N[C@@H](Cc1c[nH]c2ccccc12)C(=O)N[C@H](CC(N)=O)C(=O)N[C@@H](CC(=O)O)C(=O)N[C@@H]1C(=O)NCC(=O)N[C@@H](CCCN)C(=O)N[C@@H](CC(=O)O)C(=O)N[C@H](C)C(=O)N[C@@H](CC(=O)O)C(=O)NCC(=O)N[C@H](CO)C(=O)N[C@@H]([C@H](C)CC(=O)O)C(=O)N[C@@H](CC(=O)c2ccccc2N)C(=O)O[C@@H]1C` [Daptomycin], in experiment [3], the MIC worked out at 4 µg/mL (≈ 2.47 µM). Also, in experiment [4], the MIC is above 100 µg/mL and the “killing of MRSA sequestered inside macrophages” value was “failed to kill”.
`CO[C@H]1/C=C/O[C@@]2(C)Oc3c(C)c(O)c4c(O)c(c(/C=N/N5CCN(C)CC5)c(O)c4c3C2=O)NC(=O)/C(C)=C\C=C\[C@H](C)[C@H](O)[C@@H](C)[C@@H](O)[C@@H](C)[C@H](OC(C)=O)[C@@H]1C` [Rifampicin]: in experiment [4] (intracellular vs planktonic), the “fold higher dose to eliminate intracellular MRSA compared to MIC of planktonic bacteria” value is 6,000 fold.
With “thio-rF1-HC-121C, LC-V205C-MC-(CBDK-cit)-PAB-(dimethylpipBOR) [AAC 102]”, in experiment [1], the “reduction of bacterial loads” value was “more than 4,000 fold” and the “killing of intracellular MRSA” value was “killed intracellular MRSA”. Also, the “eradication of infection in hearts” value in experiment [2] (50 mg/kg single i.v. dose, day 4) was “completely eradicated infection in hearts”. In experiment [2] (50 mg/kg single i.v. dose), the “mice having undetectable level of bacteria in hearts” value is given as 8 out of 8. Further, the “reduction of bacterial load in kidneys” value in experiment [2] (setting [6]) was “more than 30,000 fold”.
For `CC(=O)NC[C@H]1CN(c2ccc(N3CCOCC3)c(F)c2)C(=O)O1` [Linezolid], in experiment [4], the “killing of MRSA sequestered inside macrophages” value was “failed to kill”.

B1: monoclonal antibody rF1 (recombinantly produced F1), human IgG1 kappa (antibody, V domains shown)
VH: EVQLVESGGGLVQPGGSLRLSCAASGFTLSRFAMSWVRQAPGRGLEWVASINNGNNPYYARSVQYRFTVSRDVSQNTVSLQMNNLRAEDSATYFCAKDHPSSGWPTFDSWGPGTLVTVSS
VL: DIQLTQSPSALPASVGDRVSITCRASENVGDWLAWYRQKPGKAPNLLIYKTSILESGVPSRFSGSGSGTEFTLTISSLQPDDFATYYCQHYMRFPYTFGQGTKVEIKR
Take B1: in experiment [5], the fold of maximum binding (MFI) against anti-ClfA mAb 4675 came to 10 fold.
